Measured values: patent publication US8785459B2, “Quinazoline compounds as kinase inhibitors” (Development Center for Biotechnology, priority 2011, dated 2014)

Legend:
[1] = biological target: B-Raf (Homo sapiens (Human), UniProt P15056); test: Raf kinase assay (B-Raf), [33P] incorporation into MEK1(K97R); assay type: biochemical; conditions: for inhibition at 1 µM: 1.0 μM compound, read-out: B-Raf inhibition at 1.0 μM
In short: (§1)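 Recombinant C-Raf (2 ng) or B-Raf or B-Raf V600E (5 ng each) phosphorylated 500 ng MEK1(K97R) with 8 μM ATP plus [33P]ATP, pH 7.5, 30 min at 30 °C. Filter-captured 33P counted. IC50 from 3-fold compound dilutions run in duplicate.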

[2] = biological target: B-Raf (V600E) (Homo sapiens (Human), UniProt P15056, V600E); test: Raf kinase assay (B-Raf (V600E)), [33P] incorporation into MEK1(K97R); assay type: biochemical
B-Raf (V600E), sequence (P15056 whole entry V600E): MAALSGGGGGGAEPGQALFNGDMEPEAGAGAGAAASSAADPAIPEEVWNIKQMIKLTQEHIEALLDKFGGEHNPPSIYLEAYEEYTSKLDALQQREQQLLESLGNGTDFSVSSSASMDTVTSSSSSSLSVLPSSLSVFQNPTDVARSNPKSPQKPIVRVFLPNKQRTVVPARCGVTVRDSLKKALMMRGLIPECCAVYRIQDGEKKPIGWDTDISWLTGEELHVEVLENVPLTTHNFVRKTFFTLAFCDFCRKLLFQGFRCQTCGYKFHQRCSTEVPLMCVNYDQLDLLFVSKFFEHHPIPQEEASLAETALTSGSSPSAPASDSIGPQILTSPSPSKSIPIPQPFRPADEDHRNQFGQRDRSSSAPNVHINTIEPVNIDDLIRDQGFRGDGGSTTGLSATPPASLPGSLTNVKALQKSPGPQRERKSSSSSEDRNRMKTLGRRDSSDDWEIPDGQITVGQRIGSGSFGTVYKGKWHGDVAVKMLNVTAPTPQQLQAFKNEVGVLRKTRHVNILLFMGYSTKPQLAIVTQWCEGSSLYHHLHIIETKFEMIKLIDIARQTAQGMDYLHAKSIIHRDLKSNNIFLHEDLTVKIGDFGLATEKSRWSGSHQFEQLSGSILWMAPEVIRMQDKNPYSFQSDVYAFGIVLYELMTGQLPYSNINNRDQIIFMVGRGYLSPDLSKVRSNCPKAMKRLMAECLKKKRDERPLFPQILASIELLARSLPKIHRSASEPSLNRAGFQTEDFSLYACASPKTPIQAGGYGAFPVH
In short: as §1

[3] = biological target: C-Raf (Homo sapiens (Human), UniProt P04049); test: Raf kinase assay (C-Raf), [33P] incorporation into MEK1(K97R); assay type: biochemical
C-Raf, sequence (P04049 whole entry): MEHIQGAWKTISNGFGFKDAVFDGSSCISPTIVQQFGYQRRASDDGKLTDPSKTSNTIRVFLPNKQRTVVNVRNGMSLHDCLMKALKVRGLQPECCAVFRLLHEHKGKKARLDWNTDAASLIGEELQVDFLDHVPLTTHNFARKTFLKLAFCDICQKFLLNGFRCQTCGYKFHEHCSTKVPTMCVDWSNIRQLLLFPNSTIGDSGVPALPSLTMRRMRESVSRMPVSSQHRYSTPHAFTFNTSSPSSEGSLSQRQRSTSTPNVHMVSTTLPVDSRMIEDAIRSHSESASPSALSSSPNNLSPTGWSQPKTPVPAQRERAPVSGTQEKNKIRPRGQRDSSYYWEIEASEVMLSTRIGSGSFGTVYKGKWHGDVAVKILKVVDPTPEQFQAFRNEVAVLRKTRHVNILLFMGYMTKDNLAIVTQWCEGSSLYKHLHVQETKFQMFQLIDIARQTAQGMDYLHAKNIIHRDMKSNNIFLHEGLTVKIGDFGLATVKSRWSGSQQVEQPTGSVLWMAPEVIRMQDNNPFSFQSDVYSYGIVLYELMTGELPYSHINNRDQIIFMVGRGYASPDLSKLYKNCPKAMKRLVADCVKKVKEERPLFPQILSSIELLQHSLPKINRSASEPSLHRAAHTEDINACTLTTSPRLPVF
In short: as §1

[4] = system: A549; test: Anti-proliferative activity, CellTiter-96 assay, A549; assay type: cell-based; conditions: Homo sapiens, A549 cells, 72 hours incubation
Method: (§2) Antiproliferative Activity
(§3) The anti-proliferative activities of the compounds with formula (I) and formula (II) with respect to four human cancer cell lines (A549, A375, MDA-MB-231, and COLO205) were measured using the CellTiter™-96 assay kit (Promega) following the manufacturer's instructions. In brief, the cells were maintained in DMEM containing 10% FCS and incubated at 37° C. in 5% CO2 atmosphere. Cells were plated at a density of 2000 cells/well of a 96-well plate for 24 h, then treated with different concentrations of the compounds, and incubated for another 72 hours. At the end of the incubation, CellTiter™-96 Aqueous One Solution Reagent (Promega) was added and incubated for another 4.0 hours. Cell viability was determined by measuring absorbance at 490 nm using EMax® microplate reader (Molecular Devices). Data were processed and analyzed using GraphPad Prism version 4.

[5] = system: A375; test: Anti-proliferative activity, CellTiter-96 assay, A375; assay type: cell-based; conditions: Homo sapiens, A-375, A375 cells, 72 hours incubation
Method: as §2, §3

[6] = system: MDA-MB-231; test: Anti-proliferative activity, CellTiter-96 assay, MDA-MB-231; assay type: cell-based; conditions: Homo sapiens, MDA-MB-231 cells, 72 hours incubation
Method: as §2, §3

[7] = system: COLO205; test: Anti-proliferative activity, CellTiter-96 assay, COLO205; assay type: cell-based; conditions: Homo sapiens, COLO 205, COLO205 cells, 72 hours incubation
Method: as §2, §3

B-Raf, sequence (P15056 whole entry): as the sequence (P15056 whole entry V600E) above, with E600V counted along it

| SMILES | IC50 [1] [nM] | inhibition at 1 µM [1] [%] | IC50 [2] [nM] | IC50 [3] [nM] | IC50 [4] [nM] | IC50 [5] [nM] | IC50 [6] [nM] | IC50 [7] [nM] |
| --- | --- | --- | --- | --- | --- | --- | --- | --- |
| COc1ccc(-c2ccc3ncnc(Nc4cccc5[nH]ncc45)c3c2)cc1C=O [Compound 98, 5-(4-(1H-indazol-4-ylamino)quinazolin-6-yl)-2-methoxybenzaldehyde] | 73.9 | 92.5 | 105 | 338 | 12700 ± 5300 | 7200 ± 600 | 9600 ± 1600 | 9600 ± 1600 |
| N#Cc1cccc(-c2ccc3ncnc(Nc4cccc5[nH]ncc45)c3c2)c1 [Compound 102, 3-(4-(1H-indazol-4-ylamino)quinazolin-6-yl)benzonitrile] | 134 | 87 | 199 | 294 | > 50000 | > 50000 | > 50000 | > 50000 |
| COc1cc(-c2ccc3nccc(Nc4cccc5[nH]ncc45)c3c2)ccc1O [Compound 103, 4-(4-(1H-indazol-4-ylamino)quinolin-6-yl)-2-methoxyphenol] | 164 | 85.2 | 211 | 354 | 3200 | 6600 | 4000 ± 200 | 8900 |
| CCCS(=O)(=O)Nc1cccc(-c2ccc3ncnc(Nc4cccc5[nH]ncc45)c3c2)c1 [Compound 109, N-(3-(4-(1H-indazol-4-ylamino)quinazolin-6-yl)phenyl)propane-1-sulfonamide] | 126 | 85.1 | 164 | 521 | 16900 ± 600 | 14200 ± 1000 | 10100 ± 1100 | 13600 ± 1500 |
| COc1cccc(-c2ccc3nccc(Nc4cccc5[nH]ncc45)c3c2)c1F [Compound 111, 6-(2-fluoro-3-methoxyphenyl)-N-(1H-indazol-4-yl)quinolin-4-amine] | 83.4 | 89.1 | 99.9 | 290 | 25100 ± 7100 | 36300 ± 1700 | 26500 ± 7300 | 32300 ± 8500 |
| N#Cc1cccc(-c2ccc3nccc(Nc4cccc5[nH]ncc45)c3c2)c1 [Compound 114, 3-(4-(1H-indazol-4-ylamino)quinolin-6-yl)benzonitrile] | 99.2 | 82.3 | 123 | 287 | 4800 ± 1600 | 6300 ± 700 | 6200 ± 600 | 2600 ± 400 |
| COc1ccc(-c2ccc3nccc(Nc4cccc5[nH]ncc45)c3c2)cc1C=O [Compound 116, 5-(4-(1H-indazol-4-ylamino)quinolin-6-yl)-2-methoxybenzaldehyde] | 99.6 | 88.4 | 117 | 233 | 6400 ± 700 | 5400 ± 700 | 6200 ± 400 | 6300 ± 200 |
| NC(=O)c1cccc(-c2ccc3nccc(Nc4cccc5[nH]ncc45)c3c2)c1 [Compound 117, 3-(4-(1H-indazol-4-ylamino)quinolin-6-yl)benzamide] | 107 | 86.6 | 114 | 321 | 23500 ± 500 | 23700 ± 2400 | 13600 ± 900 | 8900 ± 100 |
| CS(=O)(=O)c1ccc(-c2ccc3nccc(Nc4cccc5[nH]ncc45)c3c2)cc1 [Compound 120, N-(1H-indazol-4-yl)-6-(4-(methylsulfonyl)phenyl)quinolin-4-amine] | 134 | 88.2 | 119 | 277 | 12100 ± 3200 | 8500 ± 1200 | 10900 ± 1400 | 7300 ± 1000 |
| Oc1ccc(-c2ccc3nccc(Nc4cccc5[nH]ncc45)c3c2)cc1 [Compound 124, 4-(4-(1H-indazol-4-ylamino)quinolin-6-yl)phenol] | 188 | 82.4 | 185 | 409 | 6100 ± 600 | 7300 ± 600 | 8500 ± 1400 | 9600 ± 600 |
| COc1cc(-c2ccc3ncnc(Nc4cccc5[nH]nc(Cl)c45)c3c2)ccc1O [Compound 126, 4-(4-(3-chloro-1H-indazol-4-ylamino)quinazolin-6-yl)-2-methoxyphenol] | 142 | 83.6 | 162 | 287 | 2700 ± 1700 | 2900 ± 1600 | 2400 ± 1100 | 16800 ± 9300 |
| Oc1cccc(Nc2ncnc3ccc(-c4ccccc4)cc23)c1 [Compound 133, 3-(6-phenylquinazolin-4-ylamino)phenol] | 168 | 85.8 | 254 | 6640 | 9300 ± 1300 | 6000 ± 1000 | 33800 ± 6900 | 11500 ± 800 |
| Nc1ccc(F)c(-c2ccc3nccc(Nc4cccc5[nH]ncc45)c3c2)c1 [Compound 137, 6-(5-amino-2-fluorophenyl)-N-(1H-indazol-4-yl)quinolin-4-amine] | 149 | 78.2 | 152 | 1330 | 10800 ± 700 | 23600 ± 1200 | 19500 ± 2100 | 8300 ± 400 |

Molecules with a lower IC50 [1], results first:

| IC50 [1] [nM] | inhibition at 1 µM [1] [%] | IC50 [2] [nM] | IC50 [3] [nM] | IC50 [4] [nM] | IC50 [5] [nM] | IC50 [6] [nM] | IC50 [7] [nM] | SMILES |
| --- | --- | --- | --- | --- | --- | --- | --- | --- |
| 21 | 95.8 | 23 | 136 | 1780 ± 200 | 1400 ± 400 | 5500 ± 500 | 5200 ± 200 | COc1cc(-c2ccc3nccc(Nc4cccc(O)c4)c3c2)ccc1O [Compound 100, 4-(4-(3-hydroxyphenylamino)quinolin-6-yl)-2-methoxyphenol] |
| 18.1 | 97.1 | 20.9 | 96.1 | 6700 ± 100 | 2300 ± 300 | 21100 ± 3800 | 21100 ± 3800 | COc1cc(-c2ccc3nccc(Nc4cc(O)ccc4F)c3c2)ccc1O [Compound 101, 4-(4-(2-fluoro-5-hydroxyphenylamino)quinolin-6-yl)-2-methoxyphenol] |
| 60 | 88.4 | 70.9 | 590 | 900 ± 500 | 1000 ± 200 | 1000 ± 100 | 6400 ± 600 | COc1cc(-c2ccc3ncnc(Nc4cc(O)ccc4C)c3c2)ccc1O [Compound 154, 4-(4-(5-hydroxy-2-methylphenylamino)quinazolin-6-yl)-2-methoxyphenol] |
| 57.3 | 92.4 | 81.7 | 301 | 1600 ± 400 | 1900 ± 300 | 2800 ± 200 | 9600 ± 3800 | COc1cc(-c2ccc3ncnc(Nc4cc(O)c(C)cc4F)c3c2)ccc1O [Compound 156, 4-fluoro-5-(6-(4-hydroxy-3-methoxyphenyl)quinazolin-4-ylamino)-2-methylphenol] |
| 26.8 | 92 | 37.5 | 161 | 2500 ± 800 | 2900 ± 600 | 4700 ± 300 | 7800 | COc1cc(-c2ccc3ncnc(Nc4ccc(Cl)c(O)c4)c3c2)ccc1O [Compound 157, 4-(4-(4-chloro-3-hydroxyphenylamino)quinazolin-6-yl)-2-methoxyphenol] |
| 3.8 | 96.4 | 7.1 | 36.3 | 900 ± 400 | 400 ± 100 | 1200 ± 100 | 5100 ± 1000 | COc1cc(-c2ccc3ncnc(Nc4cc(O)c(F)cc4F)c3c2)ccc1O [Compound 158, 2,4-difluoro-5-(6-(4-hydroxy-3-methoxyphenyl)quinazolin-4-ylamino)phenol] |
| 11.1 | 97.4 | 19.7 | 69.2 | 2900 ± 400 | 2300 ± 500 | 4300 ± 600 | 7900 ± 1900 | COc1cc(-c2ccc3ncnc(Nc4cc(O)c(Cl)cc4F)c3c2)ccc1O [Compound 159, 2-chloro-4-fluoro-5-(6-(4-hydroxy-3-methoxyphenyl)quinazolin-4-ylamino)phenol] |
| 8.9 | 97.9 | 19 | 147 | > 30000 | 8200 ± 1300 | > 30000 | 20900 ± 12600 | Oc1cc(Nc2ncnc3ccc(-c4ccc(Cl)cc4)cc23)c(F)cc1F [Compound 160, 5-(6-(4-chlorophenyl)quinazolin-4-ylamino)-2,4-difluorophenol] |
| 16.9 | 94.7 | 23.4 | 133 | 1500 ± 300 | 1000 ± 100 | 2100 ± 500 | 5200 ± 1800 | COc1cc(-c2ccc3ncnc(Nc4ccc(F)c(O)c4)c3c2)ccc1O [Compound 161, 4-(4-(4-fluoro-3-hydroxyphenylamino)quinazolin-6-yl)-2-methoxyphenol] |
